From publication PMC10962542, “Inhibition of Aurora‐A/N‐Myc Protein–Protein Interaction Using Peptidomimetics: Understanding the Role of Peptide Cyclization” (Chembiochem, 2023)
Marks after values point to notes of the source that are not given here. *1 amine or outer side, *2 acyl side, *3 side chain or, on linkers, in order; H or OH if unused. Where a SMILES comes first, the peptide text is derived from it. Bridges are numbered along the chain shown (N, C = ends). Maleimide(3,4-diyl) = O=C1NC(=O)C([*:2])=C1[*:1]

Assays:
[1] = biological target: T1, N‐Myc/Aurora‐A interaction (Aurora‐A122‐403‐C290A/C393A) (Homo sapiens, UniProt O14965, C290A/C393A); assay: competition fluorescence anisotropy (FA) assay against fluorescein labelled N‐Myc61‐89; assay type: binding; settings: SD; further: equilibrated 2 h at room temperature
T1 construct: Aurora‐A 122‐403‐C290A/C393A protein was produced as described previously; made in house
T1 sequence (O14965 122-403 C290A/C393A): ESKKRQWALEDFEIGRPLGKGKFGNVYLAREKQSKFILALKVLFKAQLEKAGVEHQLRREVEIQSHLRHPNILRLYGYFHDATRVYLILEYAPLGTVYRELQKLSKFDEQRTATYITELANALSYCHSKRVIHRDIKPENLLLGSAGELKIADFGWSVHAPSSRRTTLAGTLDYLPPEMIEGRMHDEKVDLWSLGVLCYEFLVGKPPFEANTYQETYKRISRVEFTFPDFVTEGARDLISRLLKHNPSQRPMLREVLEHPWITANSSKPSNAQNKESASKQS

[2] = circular dichroism (CD) spectroscopy; assay type: physicochemical; settings: 150 mM NaCl, 5 mM MgCl2, pH 7.5, 5 °C, n=2, free‐thiol (red) samples with 5 mol equivalents TCEP; for MRE222 (mean residue ellipticity at 222 nm): 25 mM Tris, mean ± SD, SD; for % Helicity (estimated): from MRE222 by equation 7, 25 mM Tris
How it was run: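 Peptides at 30–120 μM in 25 mM Tris, 150 mM NaCl, 5 mM MgCl2, pH 7.5 (plus 5 mol eq. TCEP for free sulfhydryl peptides) were scanned in duplicate at 5 °C from 290 to 180 nm, 1 mm pathlength. Buffer-subtracted ellipticity gave mean residue ellipticity, and % helicity was estimated from MRE at 222 nm.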

circular dichroism = assay: circular dichroism; parameters: unit not given here; settings: 25 mM Tris, 150 mM NaCl, 5 mM MgCl2; pH 7.5; 5 °C; 30-120 uM

Compound | IC50 [1] [µM] | MRE222 (mean residue ellipticity at 222 nm) [2] | % Helicity (estimated) [2] [%] | helicity (circular dichroism)
CSCC[C@H](NC(=O)[C@H](CS)NC(=O)[C@@H](NC(=O)[C@@H](NC(=O)[C@H](Cc1c[nH]c2ccccc12)NC(=O)[C@H](CS)NC(=O)[C@@H]1CCCN1C(=O)[C@@H]1CCCN1C(=O)[C@H](CCC(=O)O)NC(=O)[C@H](CO)NC(=O)[C@H](CO)NC(=O)[C@H](Cc1c[nH]cn1)NC(=O)[C@H](CCC(=O)O)NC(=O)[C@H](C)NC(=O)[C@H](Cc1ccccc1)NC(=O)CNC(=O)[C@H](CCCNC(=N)N)NC(=O)[C@H](CO)NC(=O)[C@@H]1CCCN1C(=O)[C@H](CO)NC(=O)[C@H](CC(C)C)NC(C)=O)C(C)C)[C@@H](C)O)C(=O)N[C@@H](CC(C)C)C(=O)N[C@@H](CC(C)C)C(=O)N[C@@H](CCC(=O)O)C(=O)N[C@@H](CC(N)=O)C(=O)N[C@@H](CCC(=O)O)C(=O)N[C@@H](CC(C)C)C(=O)N[C@@H](Cc1c[nH]c2ccccc12)C(=O)NCC(N)=O [N-Myc 61-89S76C/E80C red] (Ac-LSPSRGFAEHSSEPPCWVTCMLLENELWG-NH2) | 140 ± 18 | -2428 ± 25 deg cm^−1 dmol^−1 res^−1 | 7 ± 1 | –
CSCC[C@@H]1NC(=O)[C@H](CCC(=O)O)NC(=O)[C@@H](NC(=O)[C@@H](NC(=O)[C@H](Cc2c[nH]c3ccccc23)NC(=O)[C@H](CO)NC(=O)[C@@H]2CCCN2C(=O)[C@@H]2CCCN2C(=O)[C@H](CCC(=O)O)NC(=O)[C@H](CO)NC(=O)[C@H](CO)NC(=O)[C@H](Cc2c[nH]cn2)NC(=O)[C@H](CCC(=O)O)NC(=O)[C@H](C)NC(=O)[C@H](Cc2ccccc2)NC(=O)CNC(=O)[C@H](CCCNC(=N)N)NC(=O)[C@H](CO)NC(=O)[C@@H]2CCCN2C(=O)[C@H](CO)NC(=O)[C@H](CC(C)C)NC(C)=O)C(C)C)CSSC[C@@H](C(=O)N[C@@H](CCC(=O)O)C(=O)N[C@@H](CC(N)=O)C(=O)N[C@@H](CCC(=O)O)C(=O)N[C@@H](CC(C)C)C(=O)N[C@@H](Cc2c[nH]c3ccccc23)C(=O)NCC(N)=O)NC(=O)[C@H](CC(C)C)NC1=O [N-Myc 61-89T79C/L83C ox] (Ac-LSPSRGFAEHSSEPPSWVCEMLCENELWG-NH2; disulfide 19-23) | 75 ± 8 | -1951 ± 84 deg cm^−1 dmol^−1 res^−1 | 6 ± 1 | –
CSCC[C@H](NC(=O)[C@H](CCC(=O)O)NC(=O)[C@@H](NC(=O)[C@@H](NC(=O)[C@H](Cc1c[nH]c2ccccc12)NC(=O)[C@H](CO)NC(=O)[C@@H]1CCCN1C(=O)[C@@H]1CCCN1C(=O)[C@H](CCC(=O)O)NC(C)=O)C(C)C)[C@@H](C)O)C(=O)N[C@@H](CC(C)C)C(=O)N[C@@H](CC(C)C)C(=O)N[C@@H](CCC(=O)O)C(=O)N[C@@H](CC(N)=O)C(=O)N[C@@H](CCC(=O)O)C(=O)N[C@@H](CC(C)C)C(=O)N[C@@H](Cc1c[nH]c2ccccc12)C(=O)NCC(N)=O [N‐Myc73‐89] | – | −4079±71 deg cm^−1 dmol^−1 res^−1 | 13±1 | -4080
CSCC[C@H](NC(=O)[C@H](CCC(=O)O)NC(=O)[C@@H](NC(=O)[C@@H](NC(=O)[C@H](Cc1c[nH]c2ccccc12)NC(=O)[C@H](CO)NC(=O)[C@@H]1CCCN1C(=O)[C@@H]1CCCN1C(=O)[C@H](CO)NC(C)=O)C(C)C)[C@@H](C)O)C(=O)N[C@@H](CC(C)C)C(=O)N[C@@H](CC(C)C)C(=O)N[C@@H](CCC(=O)O)C(=O)N[C@@H](CC(N)=O)C(=O)N[C@@H](CCC(=O)O)C(=O)N[C@@H](CC(C)C)C(=O)N[C@@H](Cc1c[nH]c2ccccc12)C(=O)NCC(N)=O [N‐Myc73‐89‐E73S] | 217 ± 13 | −5541±66 deg cm^−1 dmol^−1 res^−1 | 17±1 | -5540
CSCC[C@H](NC(=O)[C@H](CCC(=O)O)NC(=O)[C@@H](NC(=O)[C@@H](NC(=O)[C@H](Cc1c[nH]c2ccccc12)NC(=O)[C@H](CO)NC(=O)[C@@H]1CCCN1C(=O)[C@@H]1CCCN1C(=O)[C@H](COP(=O)(O)O)NC(C)=O)C(C)C)[C@@H](C)O)C(=O)N[C@@H](CC(C)C)C(=O)N[C@@H](CC(C)C)C(=O)N[C@@H](CCC(=O)O)C(=O)N[C@@H](CC(N)=O)C(=O)N[C@@H](CCC(=O)O)C(=O)N[C@@H](CC(C)C)C(=O)N[C@@H](Cc1c[nH]c2ccccc12)C(=O)NCC(N)=O [N‐Myc73‐89‐E73pS] | – | −5394±235 deg cm^−1 dmol^−1 res^−1 | 16±1 | -5390
CSCC[C@H](NC(=O)[C@H](CCC(=O)O)NC(=O)[C@@H](NC(=O)[C@@H](NC(=O)[C@H](Cc1c[nH]c2ccccc12)NC(=O)[C@H](CO)NC(=O)[C@@H]1CCCN1C(=O)[C@@H]1CCCN1C(=O)[C@H](CCC(=O)O)NC(C)=O)C(C)C)[C@@H](C)O)C(=O)N[C@@H](CC(C)C)C(=O)N[C@@H](CC(C)C)C(=O)N[C@@H](CCC(=O)O)C(=O)N[C@@H](CC(N)=O)C(=O)N[C@@H](CCC(=O)O)C(=O)N[C@@H](CC(C)C)C(=O)N[C@@H](Cc1c[nH]c2ccccc12)C(=O)NCC(=O)N[C@@H](CO)C(=O)N1CCC[C@H]1C(=O)N[C@@H](C)C(=O)N[C@@H](CCC(=O)O)C(=O)N[C@@H](CCC(=O)O)C(N)=O [N‐Myc73‐94] | 199 ± 13 | −4235±181 deg cm^−1 dmol^−1 res^−1 | 13±1 | -4240
CSCC[C@H](NC(=O)[C@H](CCC(=O)O)NC(=O)[C@@H](NC(=O)[C@@H](NC(=O)[C@H](Cc1c[nH]c2ccccc12)NC(=O)[C@H](CO)NC(=O)[C@@H]1CCCN1C(=O)[C@@H]1CCCN1C(=O)[C@H](CCC(=O)O)NC(C)=O)C(C)C)[C@@H](C)O)C(=O)N[C@@H](CC(C)C)C(=O)N[C@@H](CC(C)C)C(=O)N[C@@H](CCC(=O)O)C(=O)N[C@@H](CC(N)=O)C(=O)N[C@H]1CSC2=C(SC[C@@H](C(=O)N3CCC[C@H]3C(=O)N[C@@H](C)C(=O)N[C@@H](CCC(=O)O)C(=O)N[C@@H](CCC(=O)O)C(N)=O)NC(=O)CNC(=O)[C@H](Cc3c[nH]c4ccccc34)NC(=O)[C@H](CC(C)C)NC1=O)C(=O)NC2=O [N‐Myc73‐94‐E86C/S90C (mal)] (Ac-EPPSWVTEMLLENCLWGCPAEE-NH2; linker 14-18 via Maleimide(3,4-diyl)) | 111 ± 18 | – | – | -5720
CSCC[C@H](NC(=O)[C@H](CCC(=O)O)NC(=O)[C@@H](NC(=O)[C@@H](NC(=O)[C@H](Cc1c[nH]c2ccccc12)NC(=O)[C@H](CO)NC(=O)[C@@H]1CCCN1C(=O)[C@@H]1CCCN1C(=O)[C@H](CCC(=O)O)NC(C)=O)C(C)C)[C@@H](C)O)C(=O)N[C@@H](CC(C)C)C(=O)N[C@@H](CC(C)C)C(=O)N[C@@H](CCC(=O)O)C(=O)N[C@@H](CC(N)=O)C(=O)N[C@H]1CSSC[C@@H](C(=O)N2CCC[C@H]2C(=O)N[C@@H](C)C(=O)N[C@@H](CCC(=O)O)C(=O)N[C@@H](CCC(=O)O)C(N)=O)NC(=O)CNC(=O)[C@H](Cc2c[nH]c3ccccc23)NC(=O)[C@H](CC(C)C)NC1=O [N‐Myc73‐94‐E86C/S90C (ox)] (Ac-EPPSWVTEMLLENCLWGCPAEE-NH2; disulfide 14-18) | 172 ± 23 | −7454±130 deg cm^−1 dmol^−1 res^−1 | 21±1 | -7450
CSCC[C@H](NC(=O)[C@H](CCC(=O)O)NC(=O)[C@@H](NC(=O)[C@@H](NC(=O)[C@H](Cc1c[nH]c2ccccc12)NC(=O)[C@H](CO)NC(=O)[C@@H]1CCCN1C(=O)[C@@H]1CCCN1C(=O)[C@H](CCC(=O)O)NC(C)=O)C(C)C)[C@@H](C)O)C(=O)N[C@@H](CC(C)C)C(=O)N[C@@H](CC(C)C)C(=O)N[C@@H](CCC(=O)O)C(=O)N[C@@H](CC(N)=O)C(=O)N[C@@H](CS)C(=O)N[C@@H](CC(C)C)C(=O)N[C@@H](Cc1c[nH]c2ccccc12)C(=O)NCC(=O)N[C@@H](CS)C(=O)N1CCC[C@H]1C(=O)N[C@@H](C)C(=O)N[C@@H](CCC(=O)O)C(=O)N[C@@H](CCC(=O)O)C(N)=O [N‐Myc73‐94‐E86C/S90C (red)] (Ac-EPPSWVTEMLLENCLWGCPAEE-NH2) | 203 ± 4 | −6397±64^[e] deg cm^−1 dmol^−1 res^−1 | 18±1 | -6400
CSCC[C@H](NC(=O)[C@H](CCC(=O)O)NC(=O)[C@@H](NC(=O)[C@@H](NC(=O)[C@H](Cc1c[nH]c2ccccc12)NC(=O)[C@H](CO)NC(=O)[C@@H]1CCCN1C(=O)[C@@H]1CCCN1C(=O)[C@H](CCC(=O)O)NC(C)=O)C(C)C)[C@@H](C)O)C(=O)N[C@@H](CC(C)C)C(=O)N[C@@H](CC(C)C)C(=O)N[C@@H](CCC(=O)O)C(=O)N[C@H]1CSC2=C(SC[C@@H](C(=O)N[C@@H](CO)C(=O)N3CCC[C@H]3C(=O)N[C@@H](C)C(=O)N[C@@H](CCC(=O)O)C(=O)N[C@@H](CCC(=O)O)C(N)=O)NC(=O)[C@H](Cc3c[nH]c4ccccc34)NC(=O)[C@H](CC(C)C)NC(=O)[C@H](CCC(=O)O)NC1=O)C(=O)NC2=O [N‐Myc73‐94‐N85C/G89C (mal)] (Ac-EPPSWVTEMLLECELWCSPAEE-NH2; linker 13-17 via Maleimide(3,4-diyl)) | 49 ± 5 | – | – | -7220
Ac-EPPSWVTEMLLENELWGSPAEEDAF-NH2 [N‐Myc73‐97] | 79 ± 4 | −4886±55 deg cm^−1 dmol^−1 res^−1 | 14±1 | –
